Experiments:
[1] = Pharmacokinetics in AAV8-Ctrl mice; settings: C57BL/6J, mouse, serum, po, 16.5 mg/kg; for CL/F: CLz/F; for Vd/F: Vz/F; for half-life: t1/2z
[2] = Pharmacokinetics in AAV8-CYP3A4*1 mice; settings: C57BL/6J, mouse, in vivo, po, 16.5 mg/kg; for CL/F: CLz/F; for Vd/F: Vz/F; for half-life: t1/2z
[3] = Pharmacokinetics in AAV8-CYP3A4*12 mice; settings: C57BL/6J, mouse, serum, po, 16.5 mg/kg; for CL/F: CLz/F; for Vd/F: Vz/F; for half-life: t1/2z
[4] = Pharmacokinetics of aumolertinib and HAS-719 in SD rats; settings: for AUC(0-t) / AUC(0-inf) / CL/F / Cmax / Tmax / Vd/F / half-life: Sprague-Dawley, rat, plasma, po, 11 mg/kg; for CL/F: CLz/F; for Vd/F: Vz/F; for half-life: t1/2z
CYP3A4.1 = CYP3A4.1 (Homo sapiens, UniProt P08684); assay: Enzyme kinetics of aumolertinib, recombinant CYP3A4.1; format: in vitro ADME; design: made in house; host or cells: Sf21 insect cells (baculovirus); settings: CYP3A4.1, text value
Method: Specifically, first the pFastBac-CYPOR-CYP3A4 and CYPb5 plasmids are constructed, then the plasmids are transformed into DH10Bac cells to obtain the bacmid DNA. Subsequently, the bacmid DNA is transfected into Sf21 insect cells to generate high titer recombinant baculoviruses. After infecting the Sf21 cells with the high titer baculovirus, the cell suspension is collected. Finally, the cells are disrupted by sonication, and the microsomes are prepared by ultracentrifugation. To examine the expression of the target proteins and the CYP content, Western blot analysis and carbon monoxide difference spectroscopy were performed, respectively.
The reaction start, termination and sample processing are the same as described above.

[5] = aumolertinib 16.5 mg/kg oral alone (Aum)
[6] = carvedilol 7.5 mg/kg 0.5 h before aumolertinib 16.5 mg/kg oral (Car+Aum)
[7] = telmisartan 12 mg/kg 0.5 h before aumolertinib 16.5 mg/kg oral (Tel+Aum)
[8] = aumolertinib 11 mg/kg oral alone (Aum)
[9] = carvedilol 5 mg/kg oral 0.5 h before aumolertinib 11 mg/kg oral (Car + Aum)
[10] = telmisartan 8 mg/kg oral 0.5 h before aumolertinib 11 mg/kg oral (Tel + Aum)

CYP3A4.1, sequence (P08684 whole entry): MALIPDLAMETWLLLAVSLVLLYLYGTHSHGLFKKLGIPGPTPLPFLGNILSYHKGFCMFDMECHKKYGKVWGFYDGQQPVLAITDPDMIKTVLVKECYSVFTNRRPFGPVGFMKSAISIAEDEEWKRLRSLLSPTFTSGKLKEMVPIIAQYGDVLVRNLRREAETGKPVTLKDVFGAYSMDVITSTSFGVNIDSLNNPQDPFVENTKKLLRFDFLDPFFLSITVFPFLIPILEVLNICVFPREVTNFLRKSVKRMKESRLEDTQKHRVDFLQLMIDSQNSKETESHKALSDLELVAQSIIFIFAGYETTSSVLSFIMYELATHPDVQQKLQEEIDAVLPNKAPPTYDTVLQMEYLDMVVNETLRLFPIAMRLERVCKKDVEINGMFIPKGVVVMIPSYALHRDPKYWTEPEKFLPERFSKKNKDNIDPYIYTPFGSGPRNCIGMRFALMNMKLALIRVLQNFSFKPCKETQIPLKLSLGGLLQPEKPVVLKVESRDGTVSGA

SMILES: C=CC(=O)Nc1cc(Nc2nccc(-c3cn(C4CC4)c4ccccc34)n2)c(OC)cc1N(C)CCN(C)C [Aumolertinib]
- AUC(0-t) [1, 5]: 1800 ng·h/mL
- AUC(0-t) [1, 6]: 1970 ng·h/mL
- AUC(0-t) [1, 7]: 3230 ng·h/mL
- AUC(0-inf) [1, 5]: 1850 ng·h/mL
- AUC(0-inf) [1, 6]: 1980 ng·h/mL
- AUC(0-inf) [1, 7]: 3810 ng·h/mL
- CL/F [1, 5]: 148 mL/min/kg
- CL/F [1, 6]: 145 mL/min/kg
- CL/F [1, 7]: 83 mL/min/kg
- Cmax [1, 5]: 177 ± 59.9 ng/mL
- Cmax [1, 6]: 99.8 ± 27.5 ng/mL
- Cmax [1, 7]: 163 ± 65.6 ng/mL
- Tmax [1, 5]: 1.29 ± 0.49 h
- Tmax [1, 6]: 17.7 ± 10.7 h
- Tmax [1, 7]: 2.43 ± 1.13 h
- Vd/F [1, 5]: 98.8 ± 56.3 L/kg
- Vd/F [1, 6]: 38.6 ± 23.7 L/kg
- Vd/F [1, 7]: 68.2 ± 44.6 L/kg
- half-life [1, 5]: 8.21 ± 5.1 h
- half-life [1, 6]: 3.12 ± 1.79 h
- half-life [1, 7]: 9.43 ± 4.77 h
- AUC(0-t) [2, 5]: 1370 ng·h/mL
- AUC(0-t) [2, 6]: 1730 ng·h/mL
- AUC(0-t) [2, 7]: 2890 ng·h/mL
- AUC(0-inf) [2, 5]: 1390 ng·h/mL
- AUC(0-inf) [2, 6]: 1970 ng·h/mL
- AUC(0-inf) [2, 7]: 3710 ng·h/mL
- CL/F [2, 5]: 221 mL/min/kg
- CL/F [2, 6]: 145 mL/min/kg
- CL/F [2, 7]: 110 mL/min/kg
- Cmax [2, 5]: 95.4 ± 26.4 ng/mL
- Cmax [2, 6]: 96.5 ± 39 ng/mL
- Cmax [2, 7]: 154 ± 62.7 ng/mL
- Tmax [2, 5]: 1.64 ± 1.18 h
- Tmax [2, 6]: 11.6 ± 11.7 h
- Tmax [2, 7]: 16.3 ± 14.1 h
- Vd/F [2, 5]: 165 ± 125 L/kg
- Vd/F [2, 6]: 105 ± 73.6 L/kg
- Vd/F [2, 7]: 49.9 ± 33.6 L/kg
- half-life [2, 5]: 7.89 ± 2.76 h
- half-life [2, 6]: 9.63 ± 8.92 h
- half-life [2, 7]: 5.75 ± 3.22 h
- AUC(0-t) [3, 5]: 3300 ng·h/mL
- AUC(0-t) [3, 6]: 2480 ng·h/mL
- AUC(0-t) [3, 7]: 4460 ng·h/mL
- AUC(0-inf) [3, 5]: 3460 ng·h/mL
- AUC(0-inf) [3, 6]: 2510 ng·h/mL
- AUC(0-inf) [3, 7]: 8020 ng·h/mL
- CL/F [3, 5]: 87.2 mL/min/kg
- CL/F [3, 6]: 124 mL/min/kg
- CL/F [3, 7]: 51.3 mL/min/kg
- Cmax [3, 5]: 194 ± 48.8 ng/mL
- Cmax [3, 6]: 143 ± 102 ng/mL
- Cmax [3, 7]: 186 ± 74.4 ng/mL
- Tmax [3, 5]: 5.14 ± 8.32 h
- Tmax [3, 6]: 8 ± 7.57 h
- Tmax [3, 7]: 9.43 ± 10.2 h
- Vd/F [3, 5]: 83.2 ± 30.5 L/kg
- Vd/F [3, 6]: 70.4 ± 38.6 L/kg
- Vd/F [3, 7]: 90.3 ± 85 L/kg
- half-life [3, 5]: 11.9 ± 5.16 h
- half-life [3, 6]: 6.44 ± 2.34 h
- half-life [3, 7]: 29.1 ± 28.9 h
- AUC(0-t) [4, 8]: 65.9 ± 27.6 ng·h/mL
- AUC(0-t) [4, 9]: 198 ± 121 ng·h/mL
- AUC(0-t) [4, 10]: 153 ± 175 ng·h/mL
- AUC(0-inf) [4, 8]: 65.9 ± 27.6 ng·h/mL
- AUC(0-inf) [4, 9]: 203 ± 133 ng·h/mL
- AUC(0-inf) [4, 10]: 153 ± 175 ng·h/mL
- CL/F [4, 8]: 3090 mL/min/kg
- CL/F [4, 9]: 1150 mL/min/kg
- CL/F [4, 10]: 2060 mL/min/kg
- Cmax [4, 8]: 9.48 ± 3.93 ng/mL
- Cmax [4, 9]: 21.8 ± 8 ng/mL
- Cmax [4, 10]: 8.73 ± 7.55 ng/mL
- Tmax [4, 8]: 5.17 ± 1.33 h
- Tmax [4, 9]: 7.33 ± 2.42 h
- Tmax [4, 10]: 8.67 ± 2.73 h
- Vd/F [4, 8]: 675 ± 273 L/kg
- Vd/F [4, 9]: 375 ± 140 L/kg
- Vd/F [4, 10]: 582 ± 299 L/kg
- half-life [4, 8]: 2.62 ± 0.94 h
- half-life [4, 9]: 4.44 ± 2.79 h
- half-life [4, 10]: 3.21 ± 0.24 h
- increase of AUC(0-t) after combination with carvedilol ([4]; carvedilol 5 mg/kg + aumolertinib 11 mg/kg oral vs aumolertinib alone): more than 3 time
- Clint (CYP3A4.1): 0.58 μL/min/pmol CYP
- Km (CYP3A4.1; human, recombinant CYP3A4.1 cell microsomes (Sf21 insect cells)): 3.2 µM
